Results reported in US9562035B2, “Benzamide derivative useful as FASN inhibitors for the treatment of cancer” (Janssen Pharmaceutica NV, priority 2013, dated 2017).

Legend:
[1] = target: T1, FASN Keto-reductase Domain (Homo sapiens, UniProt P49327); experiment: Fatty Acid Synthase Keto-Reductase Domain (FASN KR) Inhibition; assay type: biochemical; settings: mean where tested more than once; read-out: FASN K-R Domain pIC50 (converted)
T1 construct: 10 μL hFASN enzyme (full length, 300 ng, purified in house) and 360 μM NADPH; made in house
In short: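 Keto-reductase activity followed as NADPH consumption (A340 drop between 0 and 20 min, room temperature) using in-house full-length hFASN, 360 μM NADPH and ethyl acetoacetate substrate (180 mM stock), pH 7.5 phosphate buffer.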

[2] = target: T2, hFASN enzyme (full length) (Homo sapiens, UniProt P49327); experiment: Fatty Acid Synthase (FASN) Inhibition Scintillation Proximity Assay; assay type: biochemical; settings: for IC50: mean where tested more than once, ~ = standard error of pIC50 larger than 0.5; for inhibition at 10 µM: read-out: FASN % Effect @1E−05M
T2 construct: 10 μL hFASN enzyme (full length, 300 ng, purified in house); made in house
In short: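 Eight compound concentrations (0.01–30 μM) tested in pH 7.5 phosphate buffer with DTT; human full-length enzyme converted [3H]-acetyl-CoA plus malonyl-CoA, with NADPH, over 60 min at room temperature. Hydrophobic [3H]-palmitate detected by bead proximity scintillation imaging; control-normalised data fitted for IC50/pIC50.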

A2780 ovarian cells [3] = experiment: A2780 Ovarian Cell Proliferation Assay in Lipid Reduced Medium, without Palmitate; assay type: cell-based; settings: Homo sapiens, A2780; lipid reduced medium, without palmitate, 96 h, MTT; read-out: Proliferation A2780 w/o Palmitate pIC50 (converted)
In short: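 A2780 cells were seeded in 10% FCS medium and switched next day to 10% lipid-reduced serum without palmitate. Compounds at 0.01–30 μM were added with 0.2% DMSO, 0.2% fatty-acid-free BSA and 0.25% ethanol final. After 96 h, MTT absorbance at 544 nm was normalized to plate controls, and IC50/pIC50 came from a 4-parameter logistic fit.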

A2780 ovarian cells [4] = experiment: A2780 Ovarian Cell Proliferation Assay in Lipid Reduced Medium, with Palmitate (control); assay type: cell-based; settings: Homo sapiens, A2780; lipid reduced medium, 25 μM palmitate, 96 h, MTT; read-out: Proliferation A2780 with Palmitate pIC50 (converted)
In short: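 Read-out was MTT absorbance at 544 nm after 96 h at 37 °C. Cells grown overnight in RPMI1640/10% FCS were moved to 10% lipid-reduced serum with compound plus palmitate (final 25 μM, 0.2% fatty-acid-free BSA, 0.2% DMSO). IC50 came from least-squares curve fitting, expressed as −log(IC50).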

T2 sequence (P49327 whole entry): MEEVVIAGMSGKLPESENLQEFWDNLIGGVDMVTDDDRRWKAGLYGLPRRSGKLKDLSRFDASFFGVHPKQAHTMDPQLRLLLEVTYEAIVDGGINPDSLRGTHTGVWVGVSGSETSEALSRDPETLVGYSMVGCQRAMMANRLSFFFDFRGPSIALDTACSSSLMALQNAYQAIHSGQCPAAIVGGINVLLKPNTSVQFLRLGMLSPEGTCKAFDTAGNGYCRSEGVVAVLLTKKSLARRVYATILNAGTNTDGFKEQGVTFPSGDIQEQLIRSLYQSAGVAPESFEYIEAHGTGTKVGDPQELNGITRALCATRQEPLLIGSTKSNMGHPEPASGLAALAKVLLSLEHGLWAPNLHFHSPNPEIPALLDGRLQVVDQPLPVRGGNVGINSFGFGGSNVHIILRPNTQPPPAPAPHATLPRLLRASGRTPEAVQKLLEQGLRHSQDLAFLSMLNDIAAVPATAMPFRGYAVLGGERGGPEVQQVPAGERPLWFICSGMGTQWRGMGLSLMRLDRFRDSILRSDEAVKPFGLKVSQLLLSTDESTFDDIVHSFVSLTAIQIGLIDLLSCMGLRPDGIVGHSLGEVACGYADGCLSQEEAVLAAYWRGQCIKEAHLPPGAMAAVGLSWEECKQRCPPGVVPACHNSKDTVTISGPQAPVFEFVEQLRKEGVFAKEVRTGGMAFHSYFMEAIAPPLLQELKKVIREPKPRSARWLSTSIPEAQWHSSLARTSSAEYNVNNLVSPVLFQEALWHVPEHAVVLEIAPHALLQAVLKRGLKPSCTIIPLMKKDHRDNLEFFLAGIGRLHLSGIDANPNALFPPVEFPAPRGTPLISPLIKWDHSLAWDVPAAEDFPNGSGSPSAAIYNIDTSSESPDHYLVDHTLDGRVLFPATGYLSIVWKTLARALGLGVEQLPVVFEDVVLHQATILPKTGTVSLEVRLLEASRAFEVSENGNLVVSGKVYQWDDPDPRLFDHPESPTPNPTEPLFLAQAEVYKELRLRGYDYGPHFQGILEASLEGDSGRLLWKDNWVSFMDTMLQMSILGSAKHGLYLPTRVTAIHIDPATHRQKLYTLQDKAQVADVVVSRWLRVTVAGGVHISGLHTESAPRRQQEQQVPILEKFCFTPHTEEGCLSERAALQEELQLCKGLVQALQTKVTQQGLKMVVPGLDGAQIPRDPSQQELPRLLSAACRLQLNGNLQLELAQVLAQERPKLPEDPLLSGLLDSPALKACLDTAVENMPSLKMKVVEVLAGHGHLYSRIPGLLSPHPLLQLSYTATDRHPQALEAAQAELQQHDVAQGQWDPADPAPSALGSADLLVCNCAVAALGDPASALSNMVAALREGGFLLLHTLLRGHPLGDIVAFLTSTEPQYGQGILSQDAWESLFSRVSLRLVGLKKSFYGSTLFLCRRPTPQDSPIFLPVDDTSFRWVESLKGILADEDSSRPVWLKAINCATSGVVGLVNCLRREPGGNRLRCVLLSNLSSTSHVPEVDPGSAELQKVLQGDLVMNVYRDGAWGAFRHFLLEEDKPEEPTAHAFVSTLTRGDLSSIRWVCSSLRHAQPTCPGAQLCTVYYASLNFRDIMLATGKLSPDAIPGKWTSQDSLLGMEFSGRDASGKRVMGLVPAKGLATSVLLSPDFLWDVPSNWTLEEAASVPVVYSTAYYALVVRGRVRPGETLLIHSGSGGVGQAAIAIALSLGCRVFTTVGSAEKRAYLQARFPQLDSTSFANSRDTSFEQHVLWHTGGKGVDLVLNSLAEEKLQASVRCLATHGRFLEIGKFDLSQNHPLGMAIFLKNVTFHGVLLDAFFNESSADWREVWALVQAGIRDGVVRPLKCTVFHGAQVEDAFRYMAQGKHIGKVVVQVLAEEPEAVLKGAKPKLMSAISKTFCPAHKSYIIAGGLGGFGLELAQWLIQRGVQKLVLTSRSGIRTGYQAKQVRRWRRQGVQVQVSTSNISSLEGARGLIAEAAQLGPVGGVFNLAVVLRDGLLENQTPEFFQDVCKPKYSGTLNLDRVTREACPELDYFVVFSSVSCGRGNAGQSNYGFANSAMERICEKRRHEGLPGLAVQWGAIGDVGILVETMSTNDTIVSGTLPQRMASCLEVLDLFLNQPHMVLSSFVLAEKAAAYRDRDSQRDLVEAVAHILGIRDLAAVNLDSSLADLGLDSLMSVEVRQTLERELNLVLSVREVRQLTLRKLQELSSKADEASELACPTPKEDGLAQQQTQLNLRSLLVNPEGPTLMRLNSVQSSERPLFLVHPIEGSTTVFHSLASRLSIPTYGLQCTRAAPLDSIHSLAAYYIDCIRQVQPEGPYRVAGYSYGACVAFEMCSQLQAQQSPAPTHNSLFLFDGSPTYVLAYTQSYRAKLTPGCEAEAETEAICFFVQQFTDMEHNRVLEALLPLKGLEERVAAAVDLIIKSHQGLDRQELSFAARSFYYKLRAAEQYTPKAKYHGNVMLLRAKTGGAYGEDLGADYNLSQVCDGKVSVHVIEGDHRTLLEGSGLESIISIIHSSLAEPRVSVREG
T1 sequence (P49327 whole entry, the tested form may be a part): as the sequence (P49327 whole entry) above

Compound	IC50 [1]	IC50 [2]	inhibition at 10 µM [2]	IC50 (A2780 ovarian cells [3])	IC50 (A2780 ovarian cells [4])
Cc1ccc(C(=O)N2CC(c3ccc(-c4ccnn4C)cc3)C2)cc1NC(=O)c1ccc(N2CCOCC2)nc1 [Compound 58, N-(2-methyl-5-(3-(4-(1-methyl-1H-pyrazol-5-yl)phenyl)azetidine-1-carbonyl)phenyl)-6-morpholinonicotinamide]	28.2 nM	11.2 nM	111%	18.2 nM	3720 nM
Cc1ccc(C(=O)N2CC(c3ccc(-c4ccnn4C)cc3)C2)cc1NC(=O)c1ccc(N2CCN(C)CC2)nc1 [Compound 59, N-(2-methyl-5-(3-(4-(1-methyl-1H-pyrazol-5-yl)phenyl)azetidine-1-carbonyl)phenyl)-6-(4-methylpiperazin-1-yl)nicotinamide]	115 nM	56.2 nM	103%	93.3 nM	7240 nM
Cc1ccc(C(=O)N2CC(c3ccc(-c4ccnn4C)cc3)C2)cc1NC(=O)c1ccc(N(C)C(C)C)nc1 [Compound 60, 6-(isopropyl(methyl)amino)-N-(2-methyl-5-(3-(4-(1-methyl-1H-pyrazol-5-yl)phenyl)azetidine-1-carbonyl)phenyl)nicotinamide]	28.8 nM	19.5 nM	103%	51.3 nM	2750 nM
Cc1ccc(C(=O)N2CC(c3ccc(-c4ccnn4C)cc3)C2)cc1NC(=O)c1ccc(N(C)C2CCN(C)CC2)nc1 [Compound 61, 6-(methyl(1-methylpiperidin-4-yl)amino)-N-(2-methyl-5-(3-(4-(1-methyl-1H-pyrazol-5-yl)phenyl)azetidine-1-carbonyl)phenyl)nicotinamide]	69.2 nM	15.5 nM	103%	~91.2 nM	11000 nM
Cc1ccc(C(=O)N2CC(c3ccc(-c4ccnn4C)cc3)C2)cc1NC(=O)c1ccc(NC2CCC2)nc1 [Compound 62, 6-(cyclobutylamino)-N-(2-methyl-5-(3-(4-(1-methyl-1H-pyrazol-5-yl)phenyl)azetidine-1-carbonyl)phenyl)nicotinamide]	51.3 nM	16.2 nM	103%	74.1 nM	4170 nM
CC(C)Nc1ccc(C(=O)Nc2cc(C(=O)N3CC(c4ccc(-c5ccnc6ccccc56)cc4)C3)ccc2Cl)cn1 [Compound 63, N-(2-chloro-5-(3-(4-(quinolin-4-yl)phenyl)azetidine-1-carbonyl)phenyl)-6-(isopropylamino)nicotinamide]	24.5 nM	27.5 nM	100%	53.7 nM	3020 nM
CC(C)Nc1ccc(C(=O)Nc2cc(C(=O)N3CC(c4ccc(-c5cnn(C)c5)cc4)C3)ccc2Cl)cn1 [Compound 65, N-(2-chloro-5-(3-(4-(1-methyl-1H-pyrazol-4-yl)phenyl)azetidine-1-carbonyl)phenyl)-6-(isopropylamino)nicotinamide]	28.8 nM	20.9 nM	99%	56.2 nM	> 10000 nM
CC(C)Nc1ccc(C(=O)Nc2cc(C(=O)N3CCC(c4ccc(-c5ccc6cnccc6c5)cc4)CC3)ccc2Cl)cn1 [Compound 67, N-(2-chloro-5-(4-(4-(isoquinolin-6-yl)phenyl)piperidine-1-carbonyl)phenyl)-6-(isopropylamino)nicotinamide]	~603 nM	151 nM	92%	234 nM	240 nM
CC(C)Nc1ccc(C(=O)Nc2cc(C(=O)N3CCC(c4ccc(-c5ccnc6ccccc56)cc4)CC3)ccc2Cl)cn1 [Compound 68, N-(2-chloro-5-(4-(4-(quinolin-4-yl)phenyl)piperidine-1-carbonyl)phenyl)-6-(isopropylamino)nicotinamide]	64.6 nM	31.6 nM	118%	195 nM	5250 nM
CC(C)Nc1ccc(C(=O)Nc2cc(C(=O)N3CCC(c4ccc(-c5cnn(C)c5)cc4)CC3)ccc2Cl)cn1 [Compound 69, N-(2-chloro-5-(4-(4-(1-methyl-1H-pyrazol-4-yl)phenyl)piperidine-1-carbonyl)phenyl)-6-(isopropylamino)nicotinamide]	41.7 nM	28.8 nM	98%	75.9 nM	7590 nM
CC(C)Nc1ccc(C(=O)Nc2cc(C(=O)N3CCC(c4ccc(-c5ccnn5C)cc4)CC3)ccc2Cl)cn1 [Compound 70, N-(2-chloro-5-(4-(4-(1-methyl-1H-pyrazol-5-yl)phenyl)piperidine-1-carbonyl)phenyl)-6-(isopropylamino)nicotinamide]	245 nM	56.2 nM	109%	437 nM	3550 nM
CC(C)Nc1ccc(C(=O)Nc2cc(C(=O)N3CCC(c4ccc(-c5cccnc5)cc4)CC3)ccc2Cl)cn1 [Compound 71, N-(2-chloro-5-(4-(4-(pyridin-3-yl)phenyl)piperidine-1-carbonyl)phenyl)-6-(isopropylamino)nicotinamide]	234 nM	47.9 nM	101%	447 nM	5250 nM
CC(C)Nc1ccc(C(=O)Nc2cc(C(=O)N3CCC(c4ccc(-c5ccncc5)cc4)CC3)ccc2Cl)cn1 [Compound 72, N-(2-chloro-5-(4-(4-(pyridin-4-yl)phenyl)piperidine-1-carbonyl)phenyl)-6-(isopropylamino)nicotinamide]	251 nM	39.8 nM	110%	513 nM	2630 nM
Cc1ccc(C(=O)N2CC(c3ccc(-c4cnn(C)c4)cc3)C2)cc1NC(=O)c1ccc2ccccc2n1 [Compound 79, N-(2-methyl-5-(3-(4-(1-methyl-1H-pyrazol-4-yl)phenyl)azetidine-1-carbonyl)phenyl)quinoline-2-carboxamide]	182 nM	93.3 nM	108%	525 nM	~9550 nM
Cc1ccc(C(=O)N2CC(c3ccc(-c4cnn(C)c4)cc3)C2)cc1NC(=O)c1ccccn1 [Compound 80, N-(2-methyl-5-(3-(4-(1-methyl-1H-pyrazol-4-yl)phenyl)azetidine-1-carbonyl)phenyl)picolinamide]	234 nM	51.3 nM	110%	692 nM	> 15100 nM
Cc1ccc(C(=O)N2CC(c3ccc(-c4cnn(C)c4)cc3)C2)cc1NC(=O)c1ccccc1F [Compound 82, 2-fluoro-N-(2-methyl-5-(3-(4-(1-methyl-1H-pyrazol-4-yl)phenyl)azetidine-1-carbonyl)phenyl)benzamide]	85.1 nM	22.9 nM	98%	95.5 nM	> 10000 nM
Cc1ccc(C(=O)N2CC(c3ccc(-c4cnn(C)c4)cc3)C2)cc1NC(=O)c1cccs1 [Compound 84, N-(2-methyl-5-(3-(4-(1-methyl-1H-pyrazol-4-yl)phenyl)azetidine-1-carbonyl)phenyl)thiophene-2-carboxamide]	162 nM	37.2 nM	103%	234 nM	> 10000 nM
Cc1ccc(C(=O)N2CCC(c3ccc(-c4cnn(C)c4)cc3)CC2)cc1NC(=O)C1CCCCC1 [Compound 86, N-(2-methyl-5-(4-(4-(1-methyl-1H-pyrazol-4-yl)phenyl)piperidine-1-carbonyl)phenyl)cyclohexanecarboxamide]	75.9 nM	22.4 nM	106%	182 nM	> 10000 nM
Cc1ccc(C(=O)N2CCC(c3ccc(-c4cnn(C)c4)cc3)CC2)cc1NC(=O)C(C)(C)C [Compound 87, N-(2-methyl-5-(4-(4-(1-methyl-1H-pyrazol-4-yl)phenyl)piperidine-1-carbonyl)phenyl)pivalamide]	288 nM	182 nM	96%	575 nM	> 10000 nM
Cc1ccc(C(=O)N2CCC(c3ccc(-c4cnn(C)c4)cc3)CC2)cc1NC(=O)C1CCCC1 [Compound 88, N-(2-methyl-5-(4-(4-(1-methyl-1H-pyrazol-4-yl)phenyl)piperidine-1-carbonyl)phenyl)cyclopentanecarboxamide]	126 nM	35.5 nM	100%	209 nM	> 10000 nM
